{
  "source": "patent US6489302B1",
  "about": "“Saccharide conjugates” (Deutches Krebsforschungszentrum Stiftung Des Offentlichen …, priority 1995, dated 2002)",
  "key": {"tumor": {"tested_on": "tumor", "experiment": "Applicant's finding: anti-tumor properties"}, "[1]": {"tested_on": "Dunning prostate tumor tissue", "experiment": "Whole-body autoradiography of the 14C-labeled conjugate in tumor-bearing Copenhagen rats", "type": "in vivo, rat", "settings": "Copenhagen rats with transplanted Dunning prostate tumor, 315 mg/kg i.v.", "from_the_text": "(§1) This conjugate was labeled with ^14C according to common methods and used for the following treatment of rats.\n(§2) The rats used were female Sprague-Dawley rats (SD rats; obtainable from Charles River Wiga, Sulzfeld, Germany) and male Copenhagen rats (obtainable from Harlan Sprague Dawley, Ind., U.S.A.).\nFresh pieces (2×2 mm) of Dunning prostate tumor tissue were transplanted into the Copenhagen rats. The tumors were allowed to grow for about one week until they were well palpable but not yet necrotic.\n(§3) Groups of 5 healthy SD rats were given i.v. injections of 315 mg/kg β-D-Glc-IMP and 56.2 mg/kg of β-D-Glc-IMP, respectively. 5 of the tumor-bearing Copenhagen rats were given 315 mg/kg of β-D-Glc-IMP. The radioactive dose per injection was about 20 μCi. One animal of every group was killed with CO2 10 minutes, 1 hours, 2 hours, 8 hours and 24 hours, respectively, after the administration of the injection. The tissues of the rats were prepared for a common microtome preparation and the sections were subjected to autoradiography as described by Ullberg, S., (1977), in: Alvefeldt, O. (ed.) Special issue on whole-body autoradiography. Science Tools, Bromma, Sweden, p. 2)."}, "[2]": {"experiment": "Whole-body autoradiography of the 14C-labeled conjugate in rats after i.v. injection (organ distribution)", "type": "in vivo, rat", "procedure": "as §1, §2, §3"}, "[3]": {"experiment": "Applicant's finding: side-effects", "settings": "as compared to cyclophosphoramide and isophosphoramide"}},
  "data": [
    {"smiles": "O=P(NCCCl)(NCCCl)OC1OC(CO)C(O)C(O)C1O", "note": "[β-D-Glc-IMP, β-D-Glucosylisophosphoramide]", "values": [
      {"measurement": "anti-tumor properties", "setting": "tumor", "value": "good anti-tumor properties"},
      {"measurement": "accumulation in tumor tissue", "setting": "[1]", "value": "strong accumulation"},
      {"measurement": "accumulation in organs, particularly the liver, kidneys, thymus and thyroid gland", "setting": "[2]; 10 minutes after i.v. injection, 315 mg/kg or 56.2 mg/kg", "value": "accumulated in organs"},
      {"measurement": "presence in central nervous system, including the brain", "setting": "[2]; 8 hours after i.v. injection", "value": "contained the conjugate"},
      {"measurement": "side-effects", "setting": "[3]", "value": "extremely low side-effects"}
    ]}
  ]
}
